The target of assay [1] is NAMPT (human, recombinant, C-terminally His-tagged) (Homo sapiens, UniProt P43490). The assay can be described thus: Time-Resolved Fluorescence Resonance Energy Transfer (TR-FRET) Binding Assay of NAMPT. As to conditions: 6.8 nM NAMPT, 200 nM probe, equilibrated 3 hours, absence of substrates. The gist of the method: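 Recombinant C-terminally His-tagged human NAMPT (6.8 nM) incubated 3 h at room temperature with 200 nM Oregon Green 488–labelled nicotinamide-competitive probe and 1 nM Tb-anti-His antibody in HEPES pH 7.5, 2% DMSO. TR-FRET ratio Em520/Em495 normalized to controls; IC50 from four-parameter logistic fit.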
Chain of NAMPT (human, recombinant, C-terminally His-tagged) (P43490 whole entry): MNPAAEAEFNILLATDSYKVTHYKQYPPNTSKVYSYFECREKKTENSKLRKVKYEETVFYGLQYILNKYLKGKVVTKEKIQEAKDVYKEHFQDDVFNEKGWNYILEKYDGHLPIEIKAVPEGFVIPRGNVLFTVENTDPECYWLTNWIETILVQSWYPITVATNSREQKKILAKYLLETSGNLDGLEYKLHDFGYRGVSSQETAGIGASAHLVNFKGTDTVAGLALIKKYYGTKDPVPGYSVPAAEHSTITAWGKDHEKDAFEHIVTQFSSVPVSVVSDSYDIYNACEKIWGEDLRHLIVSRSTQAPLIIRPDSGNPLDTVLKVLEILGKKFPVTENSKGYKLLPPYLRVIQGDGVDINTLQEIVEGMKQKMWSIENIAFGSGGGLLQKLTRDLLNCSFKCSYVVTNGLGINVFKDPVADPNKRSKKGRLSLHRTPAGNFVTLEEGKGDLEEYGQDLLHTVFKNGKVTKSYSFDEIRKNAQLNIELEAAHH
A general note: TR-FRET usually uses a lanthanide donor and a delayed reading to cut background.

In a further assay the target is NAMPT (Homo sapiens, UniProt P43490). The assay can be described thus: Time-Resolved Fluorescence Resonance Energy Transfer (TR-FRET) Binding Assay of NAMPT with PRPP. To be noted: 2 nM NAMPT, 2 nM probe, 200 uM PRPP and 2.5 mM ATP, equilibrated 16 hours. The gist of the method: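 Final mix: 2 nM NAMPT, 2 nM probe, 1 nM Tb-anti-His antibody, 200 uM PRPP, 2.5 mM ATP, 2% DMSO in 1× assay buffer. Equilibrated 16 hours before TR-FRET read, allowing possible enzymatic modification of compounds.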
Chain of NAMPT (P43490 whole entry): as above

Molecules are shown by their SMILES.

A word on the IC50: it is the concentration at which inhibition is half-maximal.

In the case of `O=C(Nc1ccc(C2CCN(C(=O)CC3CCCC3)CC2)cc1)[C@H]1CCN(c2ccnnc2)C1` [Example 142, (3S)—N-{4-[1-(cyclopentylacetyl)piperidin-4-yl]phenyl}-1-(pyridazin-4-yl)pyrrolidine-3-carboxamide], the IC50 came out at 1560 nM in assay [1] and 32.8 nM on NAMPT.

In the case of `CC[C@H](C)C(=O)N1CCC(c2ccc(NC(=O)C3CN(c4ccnnc4)C3)cc2)CC1` [Example 143, N-(4-{1-[(2S)-2-methylbutanoyl]piperidin-4-yl}phenyl)-1-(pyridazin-4-yl)azetidine-3-carboxamide], the concentration for half-maximal inhibition (IC50) came out at 17 nM in assay [1] and 31.1 nM on NAMPT.

Regarding `O=C(Nc1ccc(C2CCN(C(=O)CC3CCCC3)CC2)cc1)C1CN(c2ccnnc2)C1` [Example 144, N-{4-[1-(cyclopentylacetyl)piperidin-4-yl]phenyl}-1-(pyridazin-4-yl)azetidine-3-carboxamide], the IC50 in assay [1] is 14.6 nM; at NAMPT, 34.4 nM.

Take `O=C(Nc1ccc(C2CCN(C(=O)CC3CCOCC3)CC2)cc1)C1CN(c2ccnnc2)C1` [Example 145, 1-(pyridazin-4-yl)-N-{4-[1-(tetrahydro-2H-pyran-4-ylacetyl)piperidin-4-yl]phenyl}azetidine-3-carboxamide]: the half-inhibitory concentration (IC50) in assay [1] is 40.6 nM; on NAMPT, 58.1 nM.

Turning to `O=C(Nc1ccc(C2CCN(C(=O)C3CCOCC3)CC2)cc1)C1CN(c2ccnnc2)C1` [Example 146, 1-(pyridazin-4-yl)-N-{4-[1-(tetrahydro-2H-pyran-4-ylcarbonyl)piperidin-4-yl]phenyl}azetidine-3-carboxamide], the IC50 is 65.9 nM in assay [1] and 109 nM at NAMPT.

In the case of `CC(C)C(=O)N1CCC(c2ccc(NC(=O)C3CN(c4cccnn4)C3)cc2)CC1` [Example 147, N-{4-[1-(2-methylpropanoyl)piperidin-4-yl]phenyl}-1-(pyridazin-3-yl)azetidine-3-carboxamide], the IC50 in assay [1] came out at 34.6 nM; at NAMPT, 1.47 nM.

Turning to `CC(C)Cn1cc(-c2ccc(NC(=O)C3CN(c4ccnnc4)C3)cc2)cn1` [Example 148, N-{4-[1-(2-methylpropyl)-1H-pyrazol-4-yl]phenyl}-1-(pyridazin-4-yl)azetidine-3-carboxamide], the IC50 in assay [1] is 42.9 nM; at NAMPT, 20.1 nM.

For `Cc1ncccc1N1CC(C(=O)Nc2ccc(C3CCN(C(=O)c4ccccc4)CC3)cc2)C1` [Example 149, N-[4-(1-benzoylpiperidin-4-yl)phenyl]-1-(2-methylpyridin-3-yl)azetidine-3-carboxamide], the IC50 in assay [1] came out at 20.7 nM; at NAMPT it was 54.3 nM.

Consider `Cc1ncccc1N1CC(C(=O)Nc2ccc(C3CCN(C(=O)c4ccccc4F)CC3)cc2)C1` [Example 150, N-{4-[1-(2-fluorobenzoyl)piperidin-4-yl]phenyl}-1-(2-methylpyridin-3-yl)azetidine-3-carboxamide], for which the IC50 in assay [1] stood at 6.53 nM; at NAMPT, 43.8 nM.

Consider `Cc1ncccc1N1CC(C(=O)Nc2ccc(C3CCN(C(=O)c4ccccc4Cl)CC3)cc2)C1` [Example 151, N-{4-[1-(2-chlorobenzoyl)piperidin-4-yl]phenyl}-1-(2-methylpyridin-3-yl)azetidine-3-carboxamide], for which the figures for the 50% inhibitory concentration (IC50) (in assay [1]; on NAMPT) were 17.4 nM and 43.6 nM, respectively.

Consider `Cc1ncccc1N1CC(C(=O)Nc2ccc(C3CCN(C(=O)c4cccc(F)c4)CC3)cc2)C1` [Example 152, N-{4-[1-(3-fluorobenzoyl)piperidin-4-yl]phenyl}-1-(2-methylpyridin-3-yl)azetidine-3-carboxamide], for which the results for the 50% inhibitory concentration (IC50) (in assay [1]; on NAMPT) were 87.6 nM and 101 nM, respectively.

`Cc1ncccc1N1CC(C(=O)Nc2ccc(C3CCN(C(=O)c4cccc(Cl)c4)CC3)cc2)C1` [Example 153, N-{4-[1-(3-chlorobenzoyl)piperidin-4-yl]phenyl}-1-(2-methylpyridin-3-yl)azetidine-3-carboxamide]: the IC50 stood at 266 nM in assay [1] and 122 nM on NAMPT.

For `Cc1ncccc1N1CC(C(=O)Nc2ccc(C3CCN(C(=O)c4cc(Cl)cc(Cl)c4)CC3)cc2)C1` [Example 154, N-{4-[1-(3,5-dichlorobenzoyl)piperidin-4-yl]phenyl}-1-(2-methylpyridin-3-yl)azetidine-3-carboxamide], the 50% inhibitory concentration (IC50) worked out at 524 nM in assay [1] and 16.1 nM at NAMPT.

As to `Cc1ncccc1N1CC(C(=O)Nc2ccc(C3CCN(C(=O)c4ccc(F)cc4)CC3)cc2)C1` [Example 155, N-{4-[1-(4-fluorobenzoyl)piperidin-4-yl]phenyl}-1-(2-methylpyridin-3-yl)azetidine-3-carboxamide], the values for the IC50 (in assay [1]; at NAMPT) were 294 nM and 44 nM, respectively.

For `Cc1ncccc1N1CC(C(=O)Nc2ccc(C3CCN(C(=O)c4ccc(Cl)cc4)CC3)cc2)C1` [Example 156, N-{4-[1-(4-chlorobenzoyl)piperidin-4-yl]phenyl}-1-(2-methylpyridin-3-yl)azetidine-3-carboxamide], the 50% inhibitory concentration (IC50) worked out at 396 nM in assay [1] and 84.3 nM on NAMPT.

For the compound `Cc1ncccc1N1CC(C(=O)Nc2ccc(C3CCN(C(=O)c4ccc(C(F)(F)F)cc4)CC3)cc2)C1` [Example 157, 1-(2-methylpyridin-3-yl)-N-(4-{1-[4-(trifluoromethyl)benzoyl]piperidin-4-yl}phenyl)azetidine-3-carboxamide], the results for the IC50 (in assay [1]; at NAMPT) were 1070 nM and 192 nM, respectively.

Take `Cc1ncccc1N1CC(C(=O)Nc2ccc(C3CCN(C(=O)c4cccnn4)CC3)cc2)C1` [Example 158, 1-(2-methylpyridin-3-yl)-N-{4-[1-(pyridazin-3-ylcarbonyl)piperidin-4-yl]phenyl}azetidine-3-carboxamide]: the results for the half-inhibitory concentration (IC50) (in assay [1]; on NAMPT) were 2900 nM and 224 nM, respectively.

`CCCCC(=O)N1CCC(c2ccc(NC(=O)C3CN(c4cccnc4C)C3)cc2)CC1` [Example 159, 1-(2-methylpyridin-3-yl)-N-[4-(1-pentanoylpiperidin-4-yl)phenyl]azetidine-3-carboxamide]: the IC50 worked out at 137 nM in assay [1] and 61.2 nM at NAMPT.

On to `CCC(C)CC(=O)N1CCC(c2ccc(NC(=O)C3CN(c4cccnc4C)C3)cc2)CC1` (centres unmarked) [Example 160, N-{4-[1-(3-methylpentanoyl)piperidin-4-yl]phenyl}-1-(2-methylpyridin-3-yl)azetidine-3-carboxamide], for which the results for the IC50 (in assay [1]; on NAMPT) were 74.5 nM and 70.8 nM, respectively.

On to `Cc1ncccc1N1CC(C(=O)Nc2ccc(C3CCN(C(=O)CC4C[C@@H]5CC[C@H]4C5)CC3)cc2)C1` (stereo partly drawn) [Example 161, N-(4-{1-[(1S,4R)-bicyclo[2.2.1]hept-2-ylacetyl]piperidin-4-yl}phenyl)-1-(2-methylpyridin-3-yl)azetidine-3-carboxamide], for which the IC50 in assay [1] stood at 128 nM; at NAMPT it was 59.7 nM.

For the compound `Cc1ncccc1N1CC(C(=O)Nc2ccc(C3CCN(C(=O)CC4CCCC4)CC3)cc2)C1` [Example 162, N-{4-[1-(cyclopentylacetyl)piperidin-4-yl]phenyl}-1-(2-methylpyridin-3-yl)azetidine-3-carboxamide], the figures for the 50% inhibitory concentration (IC50) (in assay [1]; on NAMPT) were 144 nM and 71 nM, respectively.

Take `Cc1ncccc1N1CC(C(=O)Nc2ccc(C3CCN(C(=O)C4CC4C)CC3)cc2)C1` (centres unmarked) [Example 163, N-(4-{1-[(2-methylcyclopropyl)carbonyl]piperidin-4-yl}phenyl)-1-(2-methylpyridin-3-yl)azetidine-3-carboxamide]: the half-inhibitory concentration (IC50) is 166 nM in assay [1] and 83.1 nM at NAMPT.

The values are drawn from patent publication US8975398B2, “NAMPT inhibitors” (AbbVie Inc., priority 2012, dated 2015).
